Laboratory results published in ChEMBL document CHEMBL1153164, “Synthesis and evaluation of 3'-azido-2',3'-dideoxypurine nucleosides as inhibitors of human immunodeficiency virus” (Bioorg Med Chem Lett, 2010).

Tests used:
[1] = tested on: Human immunodeficiency virus 1; experiment: Antiviral activity against HIV1 LAI infected in human PBM cells after 5 days; assay type: functional, organism-based; settings: Human immunodeficiency virus 1, LAI, PBMC, 120 h
PBMC = experiment: Cytotoxicity against human PBMC after 5 days; assay type: cell-based; settings: 120 h
CCRF-CEM = experiment: Cytotoxicity against human CEM cells after 5 days; assay type: ADME, cell-based; settings: 120 h
Vero = experiment: Cytotoxicity against african green monkey Vero cells after 5 days; assay type: ADME, cell-based; settings: Chlorocebus sabaeus, 120 h

Row | Compound | EC50 [1] [µM] | EC90 [1] [µM] | IC50 (PBMC) [µM] | IC50 (CCRF-CEM) [µM] | IC50 (Vero) [µM]
1 | CC(C)(CO)Nc1nc(N)nc2c1ncn2[C@H]1C[C@H](N=[N+]=[N-])[C@@H](CO)O1 | 52.5 | > 10 | > 100 | > 100 | > 100
2 | [N-]=[N+]=N[C@H]1C[C@H](n2cnc3c(N)nc(F)nc32)O[C@@H]1CO | 45.8 | 94.7 | 30.1 | 30.1 | 34.4
3 | CNc1nc(Cl)nc2c1ncn2[C@H]1C[C@H](N=[N+]=[N-])[C@@H](CO)O1 | > 100 | > 100 | > 100 | > 100 | > 100
4 | C=CCNc1ncnc2c1ncn2[C@H]1C[C@H](N=[N+]=[N-])[C@@H](CO)O1 | 0.3 | 1.5 | 51.1 | > 100 | > 100
5 | Cc1cn([C@H]2C[C@H](N=[N+]=[N-])[C@@H](CO)O2)c(=O)[nH]c1=O [ZIDOVUDINE] |  | 0.02 | > 100 |  | 
6 | [N-]=[N+]=N[C@H]1C[C@H](n2cnc3c(Cl)nc(F)nc32)O[C@@H]1CO | 2.6 | 10 | 7.2 | 13.3 | 21.8
7 | [N-]=[N+]=N[C@H]1C[C@H](n2cnc3c(NC4CC4)nc(Cl)nc32)O[C@@H]1CO | 15 | 51.5 | 35.3 | > 100 | > 100
8 | CN(C)c1nc(Cl)nc2c1ncn2[C@H]1C[C@H](N=[N+]=[N-])[C@@H](CO)O1 | > 100 | > 100 | > 100 | > 100 | > 100
9 | [N-]=[N+]=N[C@H]1C[C@H](n2cnc3c(NC4CC4)nc(N)nc32)O[C@@H]1CO | 1.5 | 8.8 | > 100 | > 100 | > 100
10 | CC(CO)Nc1nc(N)nc2c1ncn2[C@H]1C[C@H](N=[N+]=[N-])[C@@H](CO)O1 (some centres not stated) | 59.9 | > 10 | > 100 | > 100 | > 100
11 | [N-]=[N+]=N[C@H]1C[C@H](n2cnc3c(N)nc(Cl)nc32)O[C@@H]1CO | 50.3 | > 100 | 35.8 | > 100 | > 100
12 | [N-]=[N+]=N[C@H]1C[C@H](n2cnc3c(NCCCCCO)nc(N)nc32)O[C@@H]1CO | 86.5 | > 10 | > 100 | > 100 | > 100
13 | COc1nc(NC2CC2)c2ncn([C@H]3C[C@H](N=[N+]=[N-])[C@@H](CO)O3)c2n1 | 59.7 | > 100 | > 100 | > 100 | > 100

The next lines start with results.

Row | EC50 [1] [µM] | EC90 [1] [µM] | Compound | IC50 (PBMC) [µM] | IC50 (CCRF-CEM) [µM] | IC50 (Vero) [µM]
14 | 0.5 | 4.3 | C=CCNc1nc(N)nc2c1ncn2[C@H]1C[C@H](N=[N+]=[N-])[C@@H](CO)O1 | > 100 | > 100 | > 100
15 | 2.1 | 16.2 | [N-]=[N+]=N[C@H]1C[C@H](n2cnc3c(NCCO)nc(N)nc32)O[C@@H]1CO | > 100 | > 100 | > 100
16 | > 100 | > 100 | COc1nc(F)nc2c1ncn2[C@H]1C[C@H](N=[N+]=[N-])[C@@H](CO)O1 | 9.4 | > 100 | > 100
17 | 1.7 | 8.5 | C#CCNc1nc(N)nc2c1ncn2[C@H]1C[C@H](N=[N+]=[N-])[C@@H](CO)O1 | > 100 | > 100 | > 100
18 | 0.16 | 0.6 | [N-]=[N+]=N[C@H]1C[C@H](n2ccc(=O)[nH]c2=O)O[C@@H]1CO [NAVURIDINE] | > 100 | 69.3 | 26
19 | 0.21 | 1.1 | CN(C)c1nc(N)nc2c1ncn2[C@H]1C[C@H](N=[N+]=[N-])[C@@H](CO)O1 | > 100 | > 100 | > 100
20 | 13.2 | > 100 | COc1nc(OC)c2ncn([C@H]3C[C@H](N=[N+]=[N-])[C@@H](CO)O3)c2n1 | > 100 | > 100 | > 100
21 | 0.4 | 1.5 | C=CCN(C)c1nc(N)nc2c1ncn2[C@H]1C[C@H](N=[N+]=[N-])[C@@H](CO)O1 | > 100 | 27 | 32
22 | 55.3 | > 100 | COc1nc(Cl)nc2c1ncn2[C@H]1C[C@H](N=[N+]=[N-])[C@@H](CO)O1 | > 100 | > 100 | > 100
23 | 12.4 | 39.6 | COc1nc(N)c2ncn([C@H]3C[C@H](N=[N+]=[N-])[C@@H](CO)O3)c2n1 | 35 | > 100 | > 100
